# From ChEMBL document CHEMBL4261482, “Development of small molecular compounds targeting cancer stem cells” (Medchemcomm, 2017)
# Experiments:
# OV-90 = test: Cytotoxicity against human OV90 cells assessed as decrease in cell viability after 72 hrs by CCK8 assay; assay type: functional, cell-based; details: OV-90, 72 h
# [1] = Cytotoxicity against human OVTOKO cells assessed as decrease in cell viability after 72 hrs by CCK8 assay; assay type: functional, cell-based
# KG-1a = test: Cytotoxicity against human KG1a cells assessed as decrease in cell viability after 48 hrs by MTT assay; assay type: functional, cell-based
# [2] = Cytotoxicity against human OVSAHO cells assessed as decrease in cell viability after 72 hrs by CCK8 assay; assay type: functional, cell-based
# U-937 = test: Cytotoxicity against human U937 cells assessed as decrease in cell viability after 48 hrs by MTT assay; assay type: functional, cell-based; details: U-937, 48 h
# SW626 = test: Cytotoxicity against human SW626 cells assessed as decrease in cell viability after 72 hrs by CCK8 assay; assay type: functional, cell-based; details: SW626, 72 h
# Daudi = test: Cytotoxicity against human Daudi cells assessed as decrease in cell viability after 72 hrs by CCK8 assay; assay type: functional, cell-based
# MIA PaCa-2 = test: Cytotoxicity against human MIAPaCa2 cells assessed as decrease in cell viability after 72 hrs by CCK8 assay; assay type: functional, cell-based; details: MIA PaCa-2, 72 h
# T47D = test: Cytotoxicity against human T47D cells assessed as decrease in cell viability after 72 hrs by CCK8 assay; assay type: functional, cell-based
# HepG2 = test: Cytotoxicity against human HepG2 cells assessed as decrease in cell viability after 72 hrs by CCK8 assay; assay type: functional, cell-based; details: HepG2, 72 h
# MOLM-13 = test: Cytotoxicity against human MOLM13 cells assessed as decrease in cell viability after 48 hrs by MTT assay; assay type: functional, cell-based; details: MOLM-13, 48 h
# CAKI-2 = test: Cytotoxicity against human Caki2 cells assessed as decrease in cell viability after 72 hrs by MTT assay; assay type: functional, cell-based; details: CAKI-2, 72 h
# ML-2 = test: Cytotoxicity against human ML2 cells assessed as decrease in cell viability after 48 hrs by MTT assay; assay type: functional, cell-based; details: ML-2, 48 h
# Caov-3 cell line = test: Cytotoxicity against human Caov3 cells assessed as decrease in cell viability after 72 hrs by CCK8 assay; assay type: functional, cell-based; details: Caov-3, 72 h
# [3] = Cytotoxicity against human ES2 cells assessed as decrease in cell viability after 72 hrs by CCK8 assay; assay type: functional, cell-based; details: ES-2, 72 h
# A549 [4] = test: Cytotoxicity against human A549 cells assessed as decrease in cell viability after 72 hrs by CCK8 assay; assay type: functional, cell-based; details: A549, 72 h
# 786-0 = test: Cytotoxicity against human 786-O cells assessed as decrease in cell viability after 72 hrs by MTT assay; assay type: functional, cell-based; details: 786-0, 72 h
# Lu-99 cell line [5] = test: Antitumor activity against human LU99 cells xenografted in BALB/cSLC-nu/nu mouse assessed as tumor growth inhibition at 5 mg/kg, iv qd administered for 14 days measured on day 15 relative to control; assay type: functional; details: Lu-99, iv, read-out: TGI
# SK-OV-3 = test: Cytotoxicity against human SKOV3 cells assessed as decrease in cell viability after 72 hrs by CCK8 assay; assay type: functional, cell-based; details: SK-OV-3, 72 h
# A2780 = test: Cytotoxicity against human A2780 cells assessed as decrease in cell viability after 72 hrs by CCK8 assay; assay type: functional, cell-based; details: A2780, 72 h
# Lu-99 cell line [6] = test: Cytotoxicity against human LU99 cells assessed as decrease in cell viability after 72 hrs by CCK8 assay; assay type: functional, cell-based; details: Lu-99, 72 h
# MV4-11 = test: Cytotoxicity against human MV4-11 cells assessed as decrease in cell viability after 48 hrs by MTT assay; assay type: functional, cell-based; details: MV4-11, 48 h
# [7] = Cytotoxicity against human VMRC-RCW cells assessed as decrease in cell viability after 72 hrs by MTT assay; assay type: functional, cell-based
# K562 = test: Cytotoxicity against human K562 cells assessed as decrease in cell viability after 48 hrs by MTT assay; assay type: functional, cell-based; details: K562, 48 h
# CWR22R = test: Cytotoxicity against human 22Rv1 cells assessed as decrease in cell viability after 72 hrs by CCK8 assay; assay type: functional, cell-based; details: 22Rv1, 72 h
# 769-P = test: Cytotoxicity against human 769-P cells assessed as decrease in cell viability after 72 hrs by MTT assay; assay type: functional, cell-based
# MKN-45 = test: Cytotoxicity against human MKN45 cells assessed as decrease in cell viability after 72 hrs by CCK8 assay; assay type: functional, cell-based; details: MKN-45, 72 h
# KG-1 = test: Cytotoxicity against human KG1 cells assessed as decrease in cell viability after 48 hrs by MTT assay; assay type: functional, cell-based; details: KG-1, 48 h
# DU-4475 = test: Cytotoxicity against human DU4475 cells assessed as decrease in cell viability after 72 hrs by CCK8 assay; assay type: functional, cell-based; details: DU-4475, 72 h
# PA-1 = test: Cytotoxicity against human PA1 cells assessed as decrease in cell viability after 72 hrs by CCK8 assay; assay type: functional, cell-based; details: PA-1, 72 h
# A549 [8] = test: Antitumor activity against human A549 cells xenografted in BALB/cSLC-nu/nu mouse assessed as tumor growth inhibition at 5 mg/kg, iv qd administered for 14 days measured on day 15 relative to control; assay type: functional; details: read-out: TGI
# MKN-1 = test: Cytotoxicity against human MKN1 cells assessed as decrease in cell viability after 72 hrs by CCK8 assay; assay type: functional, cell-based; details: MKN-1, 72 h
# RMG-I = test: Cytotoxicity against human RMG-1 cells assessed as decrease in cell viability after 72 hrs by CCK8 assay; assay type: functional, cell-based
# CAKI-1 = test: Cytotoxicity against human Caki1 cells assessed as decrease in cell viability after 72 hrs by MTT assay; assay type: functional, cell-based; details: CAKI-1, 72 h
# HCT-116 = test: Cytotoxicity against human HCT116 cells assessed as decrease in cell viability after 72 hrs by CCK8 assay; assay type: functional, cell-based; details: HCT-116, 72 h
# UMUC3 = test: Cytotoxicity against human UM-UC-3 cells assessed as decrease in cell viability after 72 hrs by CCK8 assay; assay type: functional, cell-based; details: UMUC3, 72 h
# [9] = Cytotoxicity against human KOCL48 cells assessed as decrease in cell viability after 48 hrs by MTT assay; assay type: functional, cell-based
# OVCAR-3 = test: Cytotoxicity against human OVCAR3 cells assessed as decrease in cell viability after 72 hrs by CCK8 assay; assay type: functional, cell-based; details: OVCAR-3, 72 h
# THP-1 = test: Cytotoxicity against human THP1 cells assessed as decrease in cell viability after 48 hrs by MTT assay; assay type: functional, cell-based; details: THP-1, 48 h
# MDA-MB-231 = test: Cytotoxicity against human MDA-MB-231 cells assessed as decrease in cell viability after 72 hrs by CCK8 assay; assay type: functional, cell-based; details: MDA-MB-231, 72 h
structure (smiles),measurement,setting,value
Cc1cc(O)c(-c2ccc([C@@H](C)CN)cc2)c2c1[nH]c(=O)c1sccc12,IC50,OV-90,8.8 nM
same,IC50,[1],46 nM
same,IC50,KG-1a,26.2 nM
same,IC50,[2],13 nM
same,IC50,U-937,19.2 nM
same,IC50,SW626,9.4 nM
same,IC50,Daudi,3.7 nM
same,IC50,MIA PaCa-2,5.2 nM
same,IC50,T47D,8.4 nM
same,IC50,HepG2,8.5 nM
same,IC50,MOLM-13,9 nM
same,IC50,CAKI-2,20.1 nM
same,IC50,ML-2,17.9 nM
same,IC50,Caov-3 cell line,5.1 nM
same,IC50,[3],5.6 nM
same,IC50,A549 [4],6.5 nM
same,IC50,786-0,44.1 nM
same,inhibition in vivo at 5 mg/kg,Lu-99 cell line [5],104%
same,IC50,SK-OV-3,6.3 nM
same,IC50,A2780,10 nM
same,IC50,Lu-99 cell line [6],1.5 nM
same,IC50,MV4-11,10.7 nM
same,IC50,[7],19.9 nM
same,IC50,K562,36.8 nM
same,IC50,CWR22R,8 nM
same,IC50,769-P,20.7 nM
same,IC50,MKN-45,6.1 nM
same,IC50,KG-1,48.7 nM
same,IC50,DU-4475,6.4 nM
same,IC50,PA-1,5 nM
same,inhibition in vivo at 5 mg/kg,A549 [8],65%
same,IC50,MKN-1,4.6 nM
same,IC50,RMG-I,15 nM
same,IC50,CAKI-1,27.8 nM
same,IC50,HCT-116,4.8 nM
same,IC50,UMUC3,5.7 nM
same,IC50,[9],7.1 nM
same,IC50,OVCAR-3,12 nM
same,IC50,THP-1,23.5 nM
same,IC50,MDA-MB-231,14 nM
